According to PubChem BioAssay AID1996:
In brackets after ≈: the same amount, converted by molar mass.

Details: buffer; pH 7.4; 200.0 µM

Row | SMILES | solubility kinetic [µg/mL]
1 | CCCCC1C2C(=O)N(c3ccc(C)cc3)C(=O)C2ON1c1ccccc1 (stereo not given) | 46.2 (≈ 127 µM)
2 | Cc1ccc(NC(=O)c2ccc3c(c2)CCN3S(C)(=O)=O)cc1C | 2 (≈ 5.81 µM)
3 | COP(=O)(OC)/C(C=O)=N/Nc1ccc([N+](=O)[O-])cc1 | > 45.2
4 | Cc1onc(-c2ccccc2)c1C(=O)N1CCCC(C(F)(F)F)C1 (stereo not given) | 42.7 (≈ 126 µM)
5 | CC1Cc2ccccc2N1S(=O)(=O)c1ccc(Cl)nc1 (stereo not given) | 1.9 (≈ 6.15 µM)
6 | CC(NC(=O)c1ccco1)C(=O)Nc1nccs1 (stereo not given) | > 39.8
7 | CN/C=C(/Cl)P(=O)(OC(C)C)OC(C)C | > 38.4
8 | Nc1nc(NCCO)nc(N2CCCCCC2)c1[N+](=O)[O-] | > 44.4
9 | CC(C)(C)C1CCC(C(=O)Nc2nccs2)CC1 (stereo not given) | 0.3 (≈ 1.13 µM)
10 | CN(C)S(=O)(=O)c1ccc(Cl)c(C(=O)OCC(=O)c2ccco2)c1 | > 55.8
11 | COc1ccc(-c2cc(=O)oc3c(C)c(OCC(=O)N(C)C)ccc23)cc1 | 9.6 (≈ 26.1 µM)
12 | N#Cc1ccccc1NC(=S)NC(=O)C1CCC1 | > 38.9
13 | CC(=O)c1ccc(NC(=O)NC2CCCc3ccccc32)cc1 (stereo not given) | 4.9 (≈ 15.9 µM)
14 | COc1ccc(-c2noc(=O)n2Cc2ccccc2Cl)cc1 | 17.8 (≈ 56.2 µM)
15 | COc1ccc(Nc2nc(C)cc(C)c2C#N)c(OC)c1 | < 0.2
16 | COc1ccc(NC(=O)c2sc3nc(C)cc(C)c3c2N)c(OC)c1 | < 0.3
17 | Cc1ccc(CCN2CC(C(=O)NCCC(C)C)CC2=O)cc1 (stereo not given) | 45.7 (≈ 144 µM)
18 | CCOC(=O)c1c(NC(=O)COC(=O)C2CC2C)sc(C)c1C (stereo not given) | < 0.7
19 | CCCCOC(=O)Nc1nnc(C(C)C)s1 | > 36.5
20 | Cc1ccccc1NC(=O)C[n+]1cc(-c2ccccc2)n2c1CCC2.[Cl-] | > 55.2
21 | COC(=O)c1cc(OC)c(OC)cc1NC(=O)Nc1ccccc1F | 2.4 (≈ 6.89 µM)
22 | Cc1cc(C)cc(C(=O)NCC(=O)OCC(=O)N2CCCCC2)c1 | 49.3 (≈ 148 µM)

Row | SMILES | solubility kinetic [µg/mL]
23 | COc1cc2c(cc1OC)/C(=C/C(=O)c1ccccc1F)NCC2 | 40.4 (≈ 123 µM)
24 | CC1CCCN(c2c([N+](=O)[O-])cc(C(=O)O)cc2[N+](=O)[O-])C1 (stereo not given) | 46.2 (≈ 149 µM)
25 | Cl.Cn1sccc1=O | 18.4
26 | O=C(COC(=O)c1ccc(O)cc1)Nc1ncc(Cl)cc1Cl | 31.5 (≈ 92.3 µM)
27 | CSc1nc2nc3c(cc2c(=O)n1-c1cccc(C)c1)COC(C)(C)C3 | 2.6 (≈ 7.08 µM)
28 | Cc1cc2nc(NCCCO)n(CC(=O)c3cc(C(C)(C)C)c(O)c(C(C)(C)C)c3)c2cc1C | 0.5 (≈ 1.07 µM)
29 | COc1ccc(NC(=O)C2CCCNC2=O)cc1 (stereo not given) | > 37.2
30 | COc1cc2c(cc1OC)C(C(=O)NC(C)C)C1CCCCN1C2=O (stereo not given) | > 52
31 | O=C(OCC(=O)N1CCCc2ccccc21)c1cc(Cl)ccc1O | 3.4 (≈ 9.83 µM)
32 | Cc1ccc(N2C(=O)CS/C2=N\C(=S)Nc2ccccc2)cc1 | 1 (≈ 2.93 µM)
33 | CN1CCN(c2ccc([N+](=O)[O-])c(Sc3ccccn3)c2)CC1 | > 49.6
34 | O=C(Cc1ccccc1)NN1CCCCC1 | > 32.7
35 | NS(=O)(=O)c1ccc(CCNC(=O)c2cnccn2)cc1 | > 46
36 | COc1ccc(CNc2ccc(C)c(C)c2)cc1 | 1.5 (≈ 6.22 µM)
37 | C[C@H](NC(=O)c1ccccc1)C(=O)N1CCN(c2ccccc2)CC1 | > 50.6
38 | CC(=O)Nc1ccc(S(=O)(=O)N(C)CC(=O)NCCOc2ccccc2)cc1 | > 60.8
39 | Cc1cc(C(=O)N(CCC#N)Cc2cccs2)no1 | > 41.3
40 | CC(C)NC(=NCc1ccc(Cl)cc1Cl)Nc1ccccc1 | > 50.4
41 | Cc1ccc(C)c(C(C)NC(=O)C2CCCC2)c1 (stereo not given) | 33.2 (≈ 135 µM)
42 | O=C(CSc1ccc([N+](=O)[O-])cn1)Nc1ccc(N2CCOCC2)cc1 | 0.9 (≈ 2.4 µM)
43 | Cc1cc(NC(=O)CC(C)C)c(=O)n(Cc2ccccc2F)c1 | 37.3 (≈ 118 µM)
44 | COc1ccc(S(=O)(=O)N2CCN3CCCC3C2)cc1 (stereo not given) | 41.8 (≈ 141 µM)

Row | SMILES | solubility kinetic [µg/mL]
45 | CN(C(=O)Nc1cnc2ccccc2c1)c1ccccc1 | > 41.6
46 | COc1ccc(OCCCn2ccnc2)cc1.Cl | 36
47 | Cc1cc(OCCCC(=O)NCCc2ccccn2)ccc1Cl | > 49.9
48 | CCOC(=O)N1CCN(C(=O)c2cc3ccc(OC)cc3[nH]2)CC1 | 19.5 (≈ 58.8 µM)
49 | CC1CCC(NC(=O)COC(=O)c2cccnc2Cl)CC1 (stereo not given) | > 46.6
50 | CO/N=C(/COc1ccc(F)cc1)c1ccc(OC)cc1 | < 0.6
51 | O=C(COc1ccc([N+](=O)[O-])cc1Cl)NCCN1C(=O)CSC1=O | > 56.1
52 | NC(=O)COn1c(SCC(N)=O)nc2ccccc2c1=O | > 46.2
53 | CCC(Oc1ccccc1OC)C(=O)Nc1ccc2c(c1)OCO2 (stereo not given) | 26.3 (≈ 79.9 µM)
54 | COc1cc(NS(=O)(=O)c2ccc(NC(=O)/C=C/C(=O)O)cc2)nc(OC)n1 | > 61.3
55 | CCOC(=O)C1CCN(C(=O)COc2ccc3c(c2)OCO3)CC1 | > 50.3
56 | Cc1cccn2c(Nc3ccccc3)c(-c3ccccn3)nc12 | 31.2 (≈ 104 µM)
57 | COc1cc2c(cc1NC(=O)COCC(=O)O)oc1ccccc12 | > 49.4
58 | N#Cc1cc([N+](=O)[O-])ccc1NC(=O)COC(=O)c1cnccn1 | > 49.1
59 | Cc1csc(/N=C/N(C)C)c1C#N | 28 (≈ 145 µM)
60 | N=c1c2c3c(sc2ncn1N)CCCC3 | > 33
61 | Cc1csc(SCC(=O)Nc2ccccc2C)n1 | > 41.8
62 | O=C(O)Cc1sc(-c2ccccc2)nc1-c1cccs1 | > 45.2
63 | COc1ccc(NC(=O)N2CCCCCC2)cc1OC | > 41.8
64 | CCN(C(=O)COc1ccc2ccc(=O)oc2c1)C1CCCCC1 | > 49.4
65 | CC(=O)c1ccc(N2CCN(C(=O)c3ccc(S(=O)(=O)NCc4ccco4)cc3)CC2)cc1 | 4.9 (≈ 10.5 µM)
66 | COc1cc(-c2ccc(NC(C)=O)c(OC)c2)ccc1NC(C)=O | 10.1 (≈ 30.8 µM)

Row | SMILES | solubility kinetic [µg/mL]
67 | O=C(Oc1ccc(C(=S)N2CCOCC2)cc1)c1ccccc1F | 36.6 (≈ 106 µM)
68 | C=CCNS(=O)(=O)c1cc2c3c(c1)CCN3C(=O)CC2 | > 43.9
69 | Cc1cc(=O)oc2cc(NC(=O)Cc3ccccc3)ccc12 | 1.1 (≈ 3.75 µM)
70 | O=C(COC(=O)/C=C/c1ccc(F)cc1)NCC1CCCO1 (stereo not given) | > 46.1
71 | CC1CCC(NC(=O)C2CC(=O)N(c3ccc(Cl)cc3)C2)CC1 (stereo not given) | 2.3 (≈ 6.87 µM)
72 | COc1ccc(NS(=O)(=O)c2cccc(C(=O)OCC(=O)c3c(N)n(C)c(=O)n(C)c3=O)c2)cc1 | 16.4 (≈ 32.6 µM)
73 | O=c1[nH]c2cc(NCCO)c([N+](=O)[O-])cc2[nH]1 | > 35.7
74 | O=C(Nc1ccccc1C(=O)Nc1ccc(F)cc1)c1ccco1 | 0.9 (≈ 2.78 µM)
75 | CCOC(=O)C1CCN(Cc2cccc(Oc3ccccc3)c2)CC1 | 17 (≈ 50.1 µM)
76 | O=C(NCc1ccco1)C1CC(c2ccc(F)cc2)=NO1 (stereo not given) | 8 (≈ 27.8 µM)
77 | CSc1nc2ccc(C)cc2c(=O)n1-c1cccnc1 | 8.1 (≈ 28.6 µM)
78 | NC(=O)c1ccc(NC(=O)CNC(c2ccccc2)c2ccccc2)cc1 | 3.7 (≈ 10.3 µM)
79 | CC(C)(C)c1nc2ccc([N+](=O)[O-])cc2[nH]1 | > 32.9
80 | Cc1ccc(CSCc2ccc(C(=O)NCC3CCCO3)o2)cc1 (stereo not given) | 39.4 (≈ 114 µM)
81 | COc1ccccc1CC1CC(=O)N(c2ccccc2)C1=O (stereo not given) | > 44.3
82 | CC(C(Sc1ccccc1N)c1ccccc1)[N+](=O)[O-] (stereo not given) | 15.1 (≈ 52.4 µM)
83 | C(=C\c1ccncc1)/c1ccccc1 | 11.2 (≈ 61.8 µM)
84 | O=C(NCCc1csc(-c2ccccc2)n1)c1ccccc1F | 40.2 (≈ 123 µM)
85 | O=C(Nc1ccccc1)Nc1ccccc1C(=O)NCC1CC1 | 5.1 (≈ 16.5 µM)
